Values of other authors, collected in publication PMC3156379 (Bioorganic & medicinal chemistry letters, 2011).

Experiments:
[1] = test system: MAG inhibition of neurite outgrowth; conditions: in vitro cell culture model
MAG = molecular target: T1, MAG (Homo sapiens, UniProt P20916); conditions: read-out: Kd for MAG; structures β-linked to synthetic aglycons
T1 sequence (P20916 20-626): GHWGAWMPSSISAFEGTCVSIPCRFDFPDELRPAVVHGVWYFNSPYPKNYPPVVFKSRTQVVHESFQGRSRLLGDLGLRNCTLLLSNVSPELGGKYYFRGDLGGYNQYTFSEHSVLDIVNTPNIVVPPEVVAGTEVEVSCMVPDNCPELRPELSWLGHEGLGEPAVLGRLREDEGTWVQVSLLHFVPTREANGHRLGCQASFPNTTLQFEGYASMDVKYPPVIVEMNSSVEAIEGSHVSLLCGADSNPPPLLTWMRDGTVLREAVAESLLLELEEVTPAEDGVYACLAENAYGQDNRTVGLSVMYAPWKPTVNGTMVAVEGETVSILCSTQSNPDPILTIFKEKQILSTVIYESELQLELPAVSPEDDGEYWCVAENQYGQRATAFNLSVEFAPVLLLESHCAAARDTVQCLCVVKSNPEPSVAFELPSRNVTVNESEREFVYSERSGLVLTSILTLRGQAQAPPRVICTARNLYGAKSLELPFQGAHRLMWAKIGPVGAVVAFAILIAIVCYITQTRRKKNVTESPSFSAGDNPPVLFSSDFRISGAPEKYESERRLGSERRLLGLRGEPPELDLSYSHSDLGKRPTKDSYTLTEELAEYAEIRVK

Row | Compound | reversing MAG inhibition of neurite outgrowth [1] | Kd (MAG)
1 | COC(=O)[C@@H](NC(C)=O)[C@@H](C)O[C@H]1O[C@H](CO)[C@H](O)[C@H](O[C@@H]2O[C@H](CO)[C@H](O)[C@H](O[C@]3(C(=O)[O-])C[C@H](O)[C@@H](NC(C)=O)[C@H]([C@H](O)[C@H](O)CO)O3)[C@H]2O)[C@H]1NC(C)=O.[Na+] [Compound 11a, sialyl-T-antigen] | exhibited activity for reversing MAG inhibition of neurite outgrowth | –
2 | CC(=O)N[C@H]1[C@H](OCC[Si](C)(C)C)O[C@H](CO[C@]2(C(=O)O)C[C@H](O)[C@@H](NC(C)=O)[C@H]([C@H](O)[C@H](O)CO)O2)[C@H](O)[C@@H]1O[C@@H]1O[C@H](CO)[C@H](O)[C@H](O[C@]2(C(=O)O)C[C@H](O)[C@@H](NC(C)=O)[C@H]([C@H](O)[C@H](O)CO)O2)[C@H]1O [Compound 1] | – | 820 µM
